Experimental data published in patent publication US20240174727A1, “LONG-ACTING NATRIURETIC PEPTIDES AND USES THEREOF” (Eli Lilly and Company, priority 2022, published 2024).
Numbered stars: 1 amine (or outer) side, 2 acyl side, 3 side chain; on linkers, the order of the positions; unused ones are H or OH. Bridge positions count the residues as written; N and C are the ends. Square brackets hold non-standard residues; d marks the D form. * marks the point of attachment. PEG24 = NCCOCCOCCOCCOCCOCCOCCOCCOCCOCCOCCOCCOCCOCCOCCOCCOCCOCCOCCOCCOCCOCCOCCOCCOCCC(=O)O; C20 diacid = O=C(O)CCCCCCCCCCCCCCCCCCC(=O)*; γGlu = O=C(O)[C@H](CCC(=O)[*:2])N[*:1]; 4Pal = N[C@@H](Cc1ccncc1)C(=O)O; Dap = NC[C@H](N)C(=O)O; CH2 = C([*:1])[*:2]

Legend:
[1] = Pharmacokinetics in male Sprague Dawley rats; format: in vivo; conditions: rat, sc, mean, single subcutaneous administration of 200 nMol/kg, plasma; for half-life: read-out: t½ (converted)
Description: The pharmacokinetics of the exemplary analogs are evaluated following a single subcutaneous administration of […] to male Sprague Dawley rats. Blood samples are collected over 120 hours, and resulting individual plasma concentrations are used to calculate pharmacokinetic parameters. Peptide plasma (K3 EDTA) concentrations are determined using a qualified LC/MS method that measured the intact mass of the ANP polypeptide. Each peptide and an analog as an internal standard are extracted from 100% specie specified plasma using methanol with 0.1% formic acid. A Thermo Q-Exactive, High Resolution Instrument, and a Thermo Easy Spray PepMap are combined for LC/MS detection.

[2] = tested on: plasma cGMP; assay: In vivo monkey studies, plasma cGMP ELISA; set-up: species or system male cynomolgus monkeys; conditions: for Net cGMP (nM) Change from Baseline 0.083 h: 0.083 h postdose; for Net cGMP (nM) Change from Baseline 0.083 h / Net cGMP (nM) Change from Baseline 0.25 h / Net cGMP (nM) Change from Baseline 0.5 h / Net cGMP (nM) Change from Baseline 1 h / Net cGMP (nM) Change from Baseline 2 h / Net cGMP (nM) Change from Baseline 4 h / Net cGMP (nM) Change from Baseline 8 h / Net cGMP (nM) Change from Baseline 12 h / Net cGMP (nM) Change from Baseline 24 h / Net cGMP (nM) Change from Baseline 36 h / Net cGMP (nM) Change from Baseline 48 h / Net cGMP (nM) Change from Baseline 72 h / Net cGMP (nM) Change from Baseline 96 h / Net cGMP (nM) Change from Baseline 120 h / Net cGMP (nM) Change from Baseline 144 h / Net cGMP (nM) Change from Baseline 168 h: monkey plasma; for Net cGMP (nM) Change from Baseline 0.25 h: 0.25 h postdose; for Net cGMP (nM) Change from Baseline 0.5 h: 0.5 h postdose; for Net cGMP (nM) Change from Baseline 1 h: 1 h postdose; for Net cGMP (nM) Change from Baseline 2 h: 2 h postdose; for Net cGMP (nM) Change from Baseline 4 h: 4 h postdose; for Net cGMP (nM) Change from Baseline 8 h: 8 h postdose; for Net cGMP (nM) Change from Baseline 12 h: 12 h postdose; for Net cGMP (nM) Change from Baseline 24 h: 24 h postdose; for Net cGMP (nM) Change from Baseline 36 h: 36 h postdose; for Net cGMP (nM) Change from Baseline 48 h: 48 h postdose; for Net cGMP (nM) Change from Baseline 72 h: 72 h postdose; for Net cGMP (nM) Change from Baseline 96 h: 96 h postdose; for Net cGMP (nM) Change from Baseline 120 h: 120 h postdose; for Net cGMP (nM) Change from Baseline 144 h: 144 h postdose; for Net cGMP (nM) Change from Baseline 168 h: 168 h postdose; for net cGMP levels (result in words): monkeys, single SC dose, plasma
Description: In vivo monkey studies were conducted as described in detail below. Young adult-to-adult male cynomolgus monkeys were given a single dose subcutaneously (SC). Blood was collected predose and at various pre-determined timepoints throughout the study period. Aliquot of cynomolgus monkey plasma was received for cyclic cGMP (cGMP) measurement and stored at −80° C. prior to use.
Control plasma was made for determining the recovery rate of spike-in cGMP using Enzo cGMP complete ELISA kit (Enzo Life Sciences, Inc, Farmingdale, NY, cat no. ADI-901-164). Briefly, blood from male Sprague Dawley rats (Inotiv, Indianapolis, IN), about 7 months old, was collected in a BD Vacutainer EDTA tube (Becton Dickinson, Franklin Lakes, NJ, cat no. BD-367856) with volume of approximate 4 mL through retro orbital bleeding. Plasma was prepared by spinning the tube in an Eppendorf Refrigerated Centrifuge 5810R (Brinkman Instruments, Inc, Westbury, NY) at 3500 rpm (3000×g) for 10 min at 4° C. Plasma was collected as Positive Control plasma. Cyclic GMP (cGMP standard from Enzo cGMP complete ELISA kit) was added to the positive control plasma at a final concentration of additional 40 nM. Positive Control and Spiked-in Control plasma were aliquoted and stored at −80° C.
The cGMP content was measured using the Enzo cGMP complete ELISA kit following the manufacturer's directions with modifications as described below. The cGMP standards provided in the kit were diluted 1:3 ranging from 50 nM to 0.023 nM in 1× assay buffer that was diluted in water from 2× assay buffer provided in the kit. The cGMP standards ([…]) were transferred to a 96-well polypropylene plate (Thermo Scientific, cat no. 442587).
Plasma samples were thawed from −80° C. and diluted 1:20 in 1× assay buffer in the above plate with a final volume of 150 μL. Assay buffer was added (150 μL) for both a non-specific binding control (in the absence of cGMP antibody) and a maximum binding control (in the absence of competing cGMP) in duplicate wells. Positive Control and Spiked-in Control plasma were diluted 1:20 in 1× assay buffer with a final volume of 150 μL in duplicate wells of the above plate. All diluted plasma was mixed by pipetting up and down several times.
Acetylation reagent mix was prepared by adding 1-part of acetic anhydride into 2-parts of triethylamine provided in the kit and mixing well using Vortex (Scientific Industries, Inc, Bohemia, NY). All controls, standards, and plasma samples were acetylated by adding 15 μL of acetylation reagent mix into the plate, one column at a time, and shaking for 1 min on a Titer Plate Shaker (Lab-Line Instrument, Inc., Melrose Park, IL) at room temperature. The plate was shaken for an additional 1 min following the acetylation of the last column to ensure the reaction was completed.
Acetylated controls, standard and plasma samples were transferred (100 μL) to an ELISA plate (n=1). Then 50 μL of cGMP conjugate were added to each well followed by the addition of 50 μL cGMP antibody to each well except for two non-specific binding wells, in which 50 μL of 1× assay buffer were added. The plate was then sealed and shaken for 2 h at room temperature on the plate shaker. Following this incubation, the plate was washed five times using 200 μL of 1× wash buffer diluted in water from 5× wash buffer provided in the kit. Then, 200 μL of para-Nitrophenylphosphate (pNpp) were added to each well. The plate was sealed with a new plate sealer and shaken in dark for 1 h at room temperature on the plate shaker. Finally, 50 μL of stop solution were added to each well to stop the enzyme reaction. The plate was then read at 405 nm using SpectraMax Plus (Molecular Devices, San Jose, CA).
The mean absorbance at 405 nm (O.D. 405 nm) for the non-specific binding controls was subtracted from the O.D. 405 nm of all samples. The subtracted O.D. 405 nm of all samples were then normalized with the mean subtracted O.D. 405 nm of the maximum binding controls as B/B0%. […]

Row | Compound | CL/F [1] | half-life [1] | Net cGMP (nM) Change from Baseline 0.083 h ([2]; dose 100 nmol/kg) | Net cGMP (nM) Change from Baseline 0.25 h ([2]; dose 100 nmol/kg) | Net cGMP (nM) Change from Baseline 0.5 h ([2]; dose 100 nmol/kg) | Net cGMP (nM) Change from Baseline 1 h ([2]; dose 100 nmol/kg) | Net cGMP (nM) Change from Baseline 2 h ([2]; dose 100 nmol/kg) | Net cGMP (nM) Change from Baseline 4 h ([2]; dose 100 nmol/kg) | Net cGMP (nM) Change from Baseline 8 h ([2]; dose 100 nmol/kg) | Net cGMP (nM) Change from Baseline 12 h ([2]; dose 100 nmol/kg) | Net cGMP (nM) Change from Baseline 24 h ([2]; dose 100 nmol/kg) | Net cGMP (nM) Change from Baseline 36 h ([2]; dose 100 nmol/kg) | Net cGMP (nM) Change from Baseline 48 h ([2]; dose 100 nmol/kg) | Net cGMP (nM) Change from Baseline 72 h ([2]; dose 100 nmol/kg) | Net cGMP (nM) Change from Baseline 96 h ([2]; dose 100 nmol/kg) | Net cGMP (nM) Change from Baseline 120 h ([2]; dose 100 nmol/kg) | Net cGMP (nM) Change from Baseline 144 h ([2]; dose 100 nmol/kg) | Net cGMP (nM) Change from Baseline 168 h ([2]; dose 100 nmol/kg) | net cGMP levels (result in words) [2] | further results
1 | {C20 diacid-γGlu}-EKEKEKGS[4Pal]RRSSCFGGRIGRIGHQSGLGCPSFRHGGPSSGAPPPS-NH2 (disulfide 14-30) [Example 29] | 0.545 mL/min/kg | 12 h | 2.13 nM | 3.52 nM | 9.03 nM | 10.14 nM | 15.28 nM | 17.75 nM | 26.8 nM | 28.52 nM | 31.75 nM | 32.52 nM | 21.75 nM | 12.46 nM | 12.31 nM | 8.52 nM | 8.28 nM | 4.1 nM | increased net cGMP levels | –
2 | CC[C@H](C)[C@@H]1NC(=O)[C@H](CCCNC(=N)N)NC(=O)[C@H](CC(=O)O)NC(=O)[C@H]([C@@H](C)CC)NC(=O)[C@H](CCCNC(=N)N)NC(=O)[C@H](CCCCN)NC(=O)CNC(=O)[C@H](Cc2ccccc2)NC(=O)[C@@H](NC(=O)[C@H](CO)NC(=O)[C@H](CO)NC(=O)[C@H](CCCNC(=N)N)NC(=O)CCNC(=O)[C@H](CCCCN)NC(=O)[C@H](CCC(=O)O)NC(=O)COCCOCCNC(=O)COCCOCCNC(=O)COCCOCCNC(=O)COCCOCCNC(=O)COCCOCCNC(=O)COCCOCCNC(=O)CNC(=O)[C@H](CCCCN)NC(=O)[C@H](CCC(=O)O)NC(=O)[C@H](CCCCN)NC(=O)[C@H](CCC(=O)O)NC(=O)[C@H](CCCCN)NC(=O)[C@H](CCC(=O)O)NC(=O)CC[C@H](NC(=O)CCCCCCCCCCCCCCCCCCC(=O)O)C(=O)O)CSCSC[C@@H](C(=O)N2CCC[C@H]2C(=O)N[C@@H](CO)C(=O)N[C@@H](Cc2ccccc2)C(=O)N[C@@H](CCCNC(=N)N)C(=O)N[C@@H](Cc2c[nH]cn2)C(=O)NCC(=O)NCC(=O)N[C@@H](CCCCN)C(=O)N[C@@H](CO)C(=O)N[C@@H](CO)C(=O)NCC(=O)N[C@@H](C)C(=O)N2CCC[C@H]2C(=O)N2CCC[C@H]2C(=O)N2CCC[C@H]2C(=O)N[C@@H](CO)C(N)=O)NC(=O)CNC(=O)[C@H](CC(C)C)NC(=O)CNC(=O)[C@H](CO)NC(=O)[C@H](CCC(N)=O)NC(=O)[C@H](Cc2c[nH]cn2)NC(=O)CNC1=O [Example 89] | – | – | 6.83 nM | 20.73 nM | 33.07 nM | 35.04 nM | 36.11 nM | 42.86 nM | 36.71 nM | 33.87 nM | 30.9 nM | 24.59 nM | 16.29 nM | 15.56 nM | 12.74 nM | 18.95 nM | 12.03 nM | 8.03 nM | increased net cGMP levels | –
3 | {C20 diacid-γGlu}-EKEKEKG[PEG24]S[4Pal]RRSSCFGGRIDRIGHQSGLGCPSFRHGGPSSGAPPPS-NH2 (linker 15-31 via CH2) [Example 61] | 1.08 mL/min/kg | 6 h | 4.41 nM | 24.85 nM | 27.32 nM | 28.35 nM | 25.21 nM | 28.38 nM | 33.73 nM | 23.51 nM | 27.96 nM | 24.75 nM | 11.81 nM | 14.82 nM | 20.25 nM | 12.15 nM | 18 nM | 11.81 nM | increased net cGMP levels | –
4 | {C20 diacid-γGlu}-EKEKEKGEKPRSSCFG[Dap]RIDRIGHYSGLGCPSFRHGSPSSGAPPPS-NH2 (linker 14-30 via CH2) [Example 136] | – | – | – | – | – | – | – | – | – | – | – | – | – | – | – | – | – | – | increased net cGMP levels | Net cGMP (nM) Change from Baseline 0.083 h ([2]; dose 50 nmol/kg): 3.25 nM; Net cGMP (nM) Change from Baseline 0.25 h ([2]; dose 50 nmol/kg): 12.48 nM; Net cGMP (nM) Change from Baseline 0.5 h ([2]; dose 50 nmol/kg): 20.78 nM; Net cGMP (nM) Change from Baseline 1 h ([2]; dose 50 nmol/kg): 12.12 nM; Net cGMP (nM) Change from Baseline 2 h ([2]; dose 50 nmol/kg): 9.42 nM; Net cGMP (nM) Change from Baseline 4 h ([2]; dose 50 nmol/kg): 8.76 nM; Net cGMP (nM) Change from Baseline 8 h ([2]; dose 50 nmol/kg): 7.65 nM; Net cGMP (nM) Change from Baseline 12 h ([2]; dose 50 nmol/kg): 7.65 nM; Net cGMP (nM) Change from Baseline 24 h ([2]; dose 50 nmol/kg): 11.83 nM; Net cGMP (nM) Change from Baseline 36 h ([2]; dose 50 nmol/kg): 11.18 nM; Net cGMP (nM) Change from Baseline 48 h ([2]; dose 50 nmol/kg): 5.65 nM; Net cGMP (nM) Change from Baseline 72 h ([2]; dose 50 nmol/kg): 2.61 nM; Net cGMP (nM) Change from Baseline 96 h ([2]; dose 50 nmol/kg): 2.05 nM; Net cGMP (nM) Change from Baseline 120 h ([2]; dose 50 nmol/kg): 2.71 nM; Net cGMP (nM) Change from Baseline 144 h ([2]; dose 50 nmol/kg): 3.72 nM; Net cGMP (nM) Change from Baseline 168 h ([2]; dose 50 nmol/kg): 3.36 nM
